The text below walks through data of patent publication US10087188B2, “Benzamide imidazopyrazine Btk inhibitors” (MERCK SHARP & DOHME CORP., priority 2014, dated 2018).

By IC50 is commonly meant the point on the concentration scale where inhibition reaches its midpoint.

One assay relates to HeLa cells. The assay can be described thus: [3H] Adenosine uptake assay. It is filed as cell-based. The note with it: Homo sapiens, HeLa, accumulation of tritiated adenosine into HeLa cells; compound concentration range 10 μM to 0.032 nM; read-out: ADU inhibition IC50 (adenosine uptake inhibition potency). How it is done:
Compounds are also screen in an adenosine uptake functional cellular assay using the protocol described below:
[^3H] Adenosine Uptake Assay Methods
Adenosine uptake activity was determined by monitoring the accumulation of tritiated adenosine into HeLa cells (ATCC catalog #CCL-2) using a PMT-based radiometric detection instrument. […] These cells were incubated overnight at 37° C. in a humidified atmosphere with 5% (v/v) CO2. After this time the growth medium was removed and replaced with 40 μL assay medium comprising: Hanks balanced salts solution (HBSS; Thermo Fisher Catalog #SH30268.01)+5% (v/v) FBS. Compound stock solutions in DMSO were diluted in assay medium to 2.5× final compound concentration maintaining a constant DMSO concentration of 0.25% (v/v). 40 μL of compound in assay medium was dispensed into individual wells of the Cytostar-T plates and the plates were incubated for 30 minutes under ambient laboratory conditions. Following this incubation, 20 μL of 500 nM[^3H] adenosine (American Radiolabeled Chemicals Inc. Catalog #ART0287) in assay medium was added and incubated for a further 60 minutes under ambient laboratory conditions. The amount of radiolabel accumulation was then determined using a Perkin Elmer Topcount NXT microplate reader. In brief, HeLa cells adhere to the bottom of the Cytostar-T plate, uptake of [^3H]adenosine into these cells brings the radiolabel into sufficient proximity to excite the scintillant in the base of the plates. These events are captured by single PMT, time-resolved coincidence counting. IC50 values were determined by 4 parameter robust fit of counts per second values vs. (Log10) compound concentrations.

Assay [1] concerns the target BTK enzyme (recombinant full-length BTK, hBTK) (Homo sapiens (Human), UniProt Q06187). In words: Btk enzyme activity assay, LANCE TR-FRET. It is filed as biochemical. The note with it: 50 pM hBTK, 2 μM biotin-A5-peptide, 25 μM ATP; 60 minute compound & enzyme incubation; read-out: BTK binding IC50. How it is done: Btk Enzyme Activity Assay Methods
BTK enzymatic activity was determined with the LANCE (Lanthanide Chelate Excite) TR-FRET (Time-resolved fluorescence resonance energy transfer) assay. […] After 60 minutes incubation with detection reagents, reaction plates were read on a PerkinElmer EnVision plate reader using standard TR-FRET protocol.
On the technique in general: Time-resolved FRET reads energy transfer from a long-lived donor to a nearby acceptor.

BTK enzyme (recombinant full-length BTK, hBTK), sequence (Q06187 whole entry): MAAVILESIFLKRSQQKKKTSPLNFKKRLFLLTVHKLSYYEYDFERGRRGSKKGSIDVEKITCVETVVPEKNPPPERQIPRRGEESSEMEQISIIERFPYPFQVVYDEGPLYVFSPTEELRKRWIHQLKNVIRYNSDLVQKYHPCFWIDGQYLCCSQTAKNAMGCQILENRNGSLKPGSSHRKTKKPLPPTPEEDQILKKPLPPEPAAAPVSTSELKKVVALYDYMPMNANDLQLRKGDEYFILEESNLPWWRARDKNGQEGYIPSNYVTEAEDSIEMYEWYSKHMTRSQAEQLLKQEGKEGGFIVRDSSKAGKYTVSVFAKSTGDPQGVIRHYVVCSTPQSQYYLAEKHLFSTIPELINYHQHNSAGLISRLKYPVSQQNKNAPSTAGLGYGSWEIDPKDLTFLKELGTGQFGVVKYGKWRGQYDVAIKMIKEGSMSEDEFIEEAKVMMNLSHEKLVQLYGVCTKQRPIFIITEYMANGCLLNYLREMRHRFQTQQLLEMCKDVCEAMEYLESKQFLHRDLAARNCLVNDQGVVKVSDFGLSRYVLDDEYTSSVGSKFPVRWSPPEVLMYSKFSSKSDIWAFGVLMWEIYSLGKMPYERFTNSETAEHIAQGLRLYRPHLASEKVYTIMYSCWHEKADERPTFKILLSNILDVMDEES

Regarding `CCOc1cc(C(=O)Nc2cc(C(F)(F)F)ccn2)ccc1-c1nc([C@H]2C[C@H]3CC[C@@H](C2)[C@H]3C(=O)O)n2ccnc(N)c12` [Example 104, (3-endo,8-syn)-3-[8-amino-1-(2-ethoxy-4-{[4-(trifluoromethyl)pyridin-2-yl]carbamoyl}phenyl)imidazo[1,5-a]pyrazin-3-yl]bicyclo[3.2.1] octane-8-carboxylic acid], the half-inhibitory concentration (IC50) was 10000 nM with HeLa cells and 5.2 nM in assay [1].

In the case of `COc1cc(C(=O)Nc2cc(C(F)(F)F)ccn2)ccc1-c1nc([C@H]2CN(C3CCC(C)(C(=O)O)CC3)[C@@H](C)CO2)n2ccnc(N)c12` (stereo partly drawn) [Example 181, 4-{(2R,5S)-2-[8-amino-1-(2-methoxy-4-{[4-(trifluoromethyl)pyridin-2-yl]carbamoyl}phenyl)imidazo [1,5-a]pyrazin-3-yl]-5-methylmorpholin-4-yl}-1-methylcyclohexanecarboxylic acid], the concentration for half-maximal inhibition (IC50) in the assay with HeLa cells stood at 2340 nM; in assay [1], 1.8 nM.

Regarding `CC1(C)[C@@H](C(=O)O)CC[C@@]1(C)c1nc(-c2ccc(C(=O)Nc3cc(C(F)(F)F)ccn3)cc2)c2c(N)nccn12` [Example 142, (1S,3R)-3-[8-amino-1-(4-{[4-(trifluoromethyl)pyridin-2-yl]carbamoyl}phenyl)imidazo[1,5-a]pyrazin-3-yl]-2,2,3-trimethylcyclopentane carboxylic acid], the values for the IC50 (in the assay with HeLa cells; in assay [1]) were 4320 nM and 1.2 nM, respectively.

For `CCOc1cc(C(=O)Nc2cc(C(F)(F)F)ccn2)ccc1-c1nc([C@@H]2CC[C@](C(=O)O)(C(C)C)C2)n2c(Cl)cnc(N)c12` [Example 112, (1R,3R)-3-[8-amino-5-chloro-1-(2-ethoxy-4-{[4-(trifluoromethyl)pyridin-2-yl]carbamoyl}phenyl)imidazo[1,5-a]pyrazin-3-yl]-1-(1-methylethyl) cyclopentane-carboxylic acid], the IC50 in the assay with HeLa cells turned out to be 10000 nM; in assay [1] it was 21.7 nM.

Turning to `C[C@H]1CO[C@@H](c2nc(-c3ccc(C(=O)Nc4cc(C(F)F)ccn4)cc3)c3c(N)nccn23)CN1[C@H]1CC[C@](C)(C(=O)O)CC1` [Example 206, trans-4-{(2R,5S)-2-[8-amino-1-(4-{[4-(difluoromethyl)pyridin-2-yl]carbamoyl}phenyl)imidazo [1,5-a]pyrazin-3-yl]-5-methylmorpholin-4-yl}-1-methylcyclohexanecarboxylic acid], the IC50 in the assay with HeLa cells amounted to 10000 nM; in assay [1], 1 nM.

With `CCOc1cc(C(=O)Nc2cc(C(F)(F)F)ccn2)cc(F)c1-c1nc([C@]2(C)CC[C@@](C)(C(=O)O)CC2)n2ccnc(N)c12` [Example 119, trans-4-[8-amino-1-(2-ethoxy-6-fluoro-4-{[4-(trifluoromethyl)pyridin-2-yl]carbamoyl}phenyl)imidazo[1,5-a]pyrazin-3-yl]-1,4-dimethylcyclohexane-carboxylic acid], the figures for the half-inhibitory concentration (IC50) (with HeLa cells; in assay [1]) were 10000 nM and 0.96 nM, respectively.

For the molecule `Nc1nccn2c(-c3cccc(C(=O)O)c3)nc(-c3ccc(C(=O)Nc4cc(C(F)(F)F)ccn4)cc3)c12` [Example 23, 3-(8-amino-1-(4-((4-(trifluoromethyl)pyridin-2-yl)carbamoyl)phenyl)imidazo[1,5-a]pyrazin-3-yl)benzoic acid], the IC50 with HeLa cells is 10000 nM; in assay [1], 0.56 nM.

For `Nc1nccn2c([C@@H]3CC[C@H]4[C@H](C(=O)O)[C@H]43)nc(-c3ccc(C(=O)Nc4cc(C(F)(F)F)ccn4)cc3)c12` [Example 56, (1R,2R,5R,6S)-2-[8-amino-1-(4-{[4-(trifluoromethyl)pyridin-2-yl]carbamoyl}phenyl)imidazo[1,5-a]pyrazin-3-yl]bicyclo[3.1.0]hexane-6-carboxylic acid], the IC50 in the assay on HeLa cells stood at 10000 nM; in assay [1] it was 0.52 nM.

As for `CC(C)[C@@]1(C(=O)O)CC[C@H](c2nc(-c3ccc(C(=O)Nc4cc(C(F)(F)F)ccn4)cc3)c3c(N)ncc(Cl)n23)C1` [Example 107, (1R,3S)-3-[8-amino-5-chloro-1-(4-{[4-(trifluoromethyl)pyridin-2-yl]carbamoyl}phenyl)imidazo[1,5-a]pyrazin-3-yl]-1-(1-methylethyl) cyclopentane-carboxylic acid], the IC50 amounted to 1390 nM in the assay on HeLa cells and 3.2 nM in assay [1].

As to `C[C@]1(C(=O)O)CC[C@H](N2CCO[C@@H](c3nc(-c4ccc(C(=O)Nc5ccccn5)cc4)c4c(N)ncc(Cl)n34)C2)CC1` [Example 204, trans-4-[(2R)-2-{8-amino-5-chloro-1-[4-(pyridin-2-ylcarbamoyl)phenyl]imidazo [1,5-a]pyrazin-3-yl}morpholin-4-yl]-1-methylcyclohexanecarboxylic acid], the 50% inhibitory concentration (IC50) in the assay on HeLa cells was determined as 3870 nM; in assay [1], 3.8 nM.

For `C[C@H]1CO[C@@H](c2nc(-c3ccc(C(=O)Nc4cc(C(F)(F)F)ccn4)cc3F)c3c(N)ncc(Cl)n23)CN1[C@H]1CC[C@@](C)(C(=O)O)CC1` [Example 201, cis-4-{(2R,5S)-2-[8-amino-5-chloro-1-(2-fluoro-4-{[4-(trifluoromethyl)pyridin-2-yl]carbamoyl}phenyl)imidazo [1,5-a]pyrazin-3-yl]-5-methylmorpholin-4-yl}-1-methylcyclohexanecarboxylic acid], the IC50 stood at 4060 nM in the assay on HeLa cells and 1.7 nM in assay [1].

Take `C[C@@]1(C(=O)O)CCC[C@H](c2nc(-c3ccc(C(=O)Nc4cc(C5CC5)ccn4)cc3)c3c(N)nccn23)C1` [Example 159, (1R,3S)-3-(8-amino-1-{4-[(4-cyclopropylpyridin-2-yl)carbamoyl]phenyl}imidazo[1,5-a]pyrazin-3-yl)-1-methylcyclohexane-carboxylic acid]: the IC50 came to 3020 nM in the assay with HeLa cells and 1.1 nM in assay [1].

With `Nc1nccn2c(-c3ccc(C(=O)O)nc3)nc(-c3ccc(C(=O)Nc4cc(C(F)(F)F)ccn4)cc3)c12` [Example 29, 5-[8-amino-1-(4-{[4-(trifluoromethyl)pyridin-2-yl]carbamoyl}phenyl)imidazo[1,5-a]pyrazin-3-yl]pyridine-2-carboxylic acid], the results for the IC50 (in the assay with HeLa cells; in assay [1]) were 7500 nM and 11.3 nM, respectively.

Turning to `Nc1nccn2c(C34CC(C(=O)O)(C3)C4)nc(-c3ccc(C(=O)Nc4cc(C(F)(F)F)ccn4)cc3)c12` [Example 34, 3-[8-amino-1-(4-{[4-(trifluoromethyl)pyridin-2-yl]carbamoyl}phenyl)imidazo[1,5-a]pyrazin-3-yl]bicyclo[1.1.1] pentane-1-carboxylic acid], the IC50 in the assay with HeLa cells is 6480 nM; in assay [1], 0.39 nM.

As to `CCOc1cc(C(=O)Nc2cc(C(F)(F)F)ccn2)ccc1-c1nc(C2(C)CCC(C)(C(=O)O)CC2)n2ccnc(N)c12` (centres unmarked) [Example 78, 4-[8-amino-1-(2-ethoxy-4-{[4-(trifluoromethyl)pyridin-2-yl]carbamoyl}phenyl)imidazo[1,5-a]pyrazin-3-yl]-1,4-dimethylcyclohexane-carboxylic acid], the IC50 with HeLa cells was determined as 5140 nM; in assay [1] it was 1.3 nM.

Consider `CCOc1cc(C(=O)Nc2cc(C(F)(F)F)ccn2)ccc1-c1nc(C23CCC(C(=O)O)(CC2=O)C(=O)C3)n2ccnc(N)c12` (centres unmarked) [Example 64, 4-[8-amino-1-(2-ethoxy-4-{[4-(trifluoromethyl)pyridin-2-yl]carbamoyl}phenyl)imidazo[1,5-a]pyrazin-3-yl]-2,5-dioxobicyclo[2.2.2] octane-1-carboxylic acid], for which the IC50 in the assay on HeLa cells was 10000 nM; in assay [1], 2.6 nM.
